Test results as given in the Kinase Knowledgebase extract (Sharma et al. 2016).

Tests used:
[1] = molecular target: PIK3CG (human) (UniProt P48736); assay: Assessment of PIK3CG Kinase Activity
[2] = molecular target: PIK3CA (human) (UniProt P42336); assay: Assessment of PIK3CA Kinase Activity
[3] = molecular target: PIK3CB (Human) (UniProt P42338); assay: Assessment of PIK3CB Kinase Activity
[4] = molecular target: PIK3CD (Human) (UniProt O00329); assay: Assessment of PIK3CD Kinase Activity
Sequence of PIK3CD (Human) (O00329 whole entry, looked up): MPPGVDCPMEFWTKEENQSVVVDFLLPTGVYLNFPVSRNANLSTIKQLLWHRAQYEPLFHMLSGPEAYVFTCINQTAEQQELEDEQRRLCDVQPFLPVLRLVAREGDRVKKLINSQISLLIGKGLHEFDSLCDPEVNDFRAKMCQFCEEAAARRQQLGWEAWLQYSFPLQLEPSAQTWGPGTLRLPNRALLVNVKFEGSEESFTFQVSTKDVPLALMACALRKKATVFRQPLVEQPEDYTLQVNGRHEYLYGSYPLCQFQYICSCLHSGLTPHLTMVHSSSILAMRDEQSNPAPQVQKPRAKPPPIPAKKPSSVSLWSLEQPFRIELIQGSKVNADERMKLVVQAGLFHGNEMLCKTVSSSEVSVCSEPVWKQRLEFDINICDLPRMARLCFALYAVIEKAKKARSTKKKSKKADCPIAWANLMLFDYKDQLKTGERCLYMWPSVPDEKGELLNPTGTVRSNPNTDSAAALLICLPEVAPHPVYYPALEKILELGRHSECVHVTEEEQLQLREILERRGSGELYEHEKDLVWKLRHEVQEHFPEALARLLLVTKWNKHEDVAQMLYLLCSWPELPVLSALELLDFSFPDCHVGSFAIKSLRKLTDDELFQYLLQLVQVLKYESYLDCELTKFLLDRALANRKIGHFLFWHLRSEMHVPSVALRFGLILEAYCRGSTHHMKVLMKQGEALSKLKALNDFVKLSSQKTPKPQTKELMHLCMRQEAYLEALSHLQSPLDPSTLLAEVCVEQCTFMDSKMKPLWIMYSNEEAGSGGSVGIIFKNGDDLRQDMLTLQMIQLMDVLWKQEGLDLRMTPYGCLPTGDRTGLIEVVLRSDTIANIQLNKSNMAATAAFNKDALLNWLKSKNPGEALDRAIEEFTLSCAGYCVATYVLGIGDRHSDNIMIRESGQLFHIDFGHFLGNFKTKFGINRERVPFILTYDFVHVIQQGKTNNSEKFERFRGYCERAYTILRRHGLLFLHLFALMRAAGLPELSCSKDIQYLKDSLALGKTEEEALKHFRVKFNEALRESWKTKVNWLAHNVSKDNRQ

Sequence of PIK3CG (human) (P48736 whole entry, looked up): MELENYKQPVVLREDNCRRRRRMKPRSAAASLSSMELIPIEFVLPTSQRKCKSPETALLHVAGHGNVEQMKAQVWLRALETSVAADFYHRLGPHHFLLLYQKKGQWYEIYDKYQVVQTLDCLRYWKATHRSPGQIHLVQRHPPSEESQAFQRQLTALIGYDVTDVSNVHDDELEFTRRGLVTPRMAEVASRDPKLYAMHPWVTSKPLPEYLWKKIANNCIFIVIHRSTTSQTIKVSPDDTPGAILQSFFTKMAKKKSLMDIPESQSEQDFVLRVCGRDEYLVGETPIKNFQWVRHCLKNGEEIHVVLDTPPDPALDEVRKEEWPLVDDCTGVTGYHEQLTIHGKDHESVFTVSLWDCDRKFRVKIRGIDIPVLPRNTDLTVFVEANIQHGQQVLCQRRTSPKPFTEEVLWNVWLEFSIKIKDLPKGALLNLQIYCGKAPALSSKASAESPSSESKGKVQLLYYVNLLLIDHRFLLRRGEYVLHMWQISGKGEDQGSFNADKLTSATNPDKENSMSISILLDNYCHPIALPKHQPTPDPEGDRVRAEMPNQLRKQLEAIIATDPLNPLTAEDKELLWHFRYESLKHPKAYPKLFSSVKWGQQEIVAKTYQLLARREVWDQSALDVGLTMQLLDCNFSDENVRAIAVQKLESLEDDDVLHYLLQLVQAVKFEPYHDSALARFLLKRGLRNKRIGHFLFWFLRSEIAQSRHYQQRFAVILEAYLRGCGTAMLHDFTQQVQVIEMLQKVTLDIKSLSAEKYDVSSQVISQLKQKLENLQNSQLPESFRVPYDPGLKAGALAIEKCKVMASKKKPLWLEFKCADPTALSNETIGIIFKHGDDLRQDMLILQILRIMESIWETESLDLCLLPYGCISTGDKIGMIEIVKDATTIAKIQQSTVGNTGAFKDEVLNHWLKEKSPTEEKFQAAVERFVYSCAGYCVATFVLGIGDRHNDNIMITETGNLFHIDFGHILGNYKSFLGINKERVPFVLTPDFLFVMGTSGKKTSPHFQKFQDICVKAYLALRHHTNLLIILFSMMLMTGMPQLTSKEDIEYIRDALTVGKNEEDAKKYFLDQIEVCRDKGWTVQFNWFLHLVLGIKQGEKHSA
Sequence of PIK3CA (human) (P42336 whole entry, looked up): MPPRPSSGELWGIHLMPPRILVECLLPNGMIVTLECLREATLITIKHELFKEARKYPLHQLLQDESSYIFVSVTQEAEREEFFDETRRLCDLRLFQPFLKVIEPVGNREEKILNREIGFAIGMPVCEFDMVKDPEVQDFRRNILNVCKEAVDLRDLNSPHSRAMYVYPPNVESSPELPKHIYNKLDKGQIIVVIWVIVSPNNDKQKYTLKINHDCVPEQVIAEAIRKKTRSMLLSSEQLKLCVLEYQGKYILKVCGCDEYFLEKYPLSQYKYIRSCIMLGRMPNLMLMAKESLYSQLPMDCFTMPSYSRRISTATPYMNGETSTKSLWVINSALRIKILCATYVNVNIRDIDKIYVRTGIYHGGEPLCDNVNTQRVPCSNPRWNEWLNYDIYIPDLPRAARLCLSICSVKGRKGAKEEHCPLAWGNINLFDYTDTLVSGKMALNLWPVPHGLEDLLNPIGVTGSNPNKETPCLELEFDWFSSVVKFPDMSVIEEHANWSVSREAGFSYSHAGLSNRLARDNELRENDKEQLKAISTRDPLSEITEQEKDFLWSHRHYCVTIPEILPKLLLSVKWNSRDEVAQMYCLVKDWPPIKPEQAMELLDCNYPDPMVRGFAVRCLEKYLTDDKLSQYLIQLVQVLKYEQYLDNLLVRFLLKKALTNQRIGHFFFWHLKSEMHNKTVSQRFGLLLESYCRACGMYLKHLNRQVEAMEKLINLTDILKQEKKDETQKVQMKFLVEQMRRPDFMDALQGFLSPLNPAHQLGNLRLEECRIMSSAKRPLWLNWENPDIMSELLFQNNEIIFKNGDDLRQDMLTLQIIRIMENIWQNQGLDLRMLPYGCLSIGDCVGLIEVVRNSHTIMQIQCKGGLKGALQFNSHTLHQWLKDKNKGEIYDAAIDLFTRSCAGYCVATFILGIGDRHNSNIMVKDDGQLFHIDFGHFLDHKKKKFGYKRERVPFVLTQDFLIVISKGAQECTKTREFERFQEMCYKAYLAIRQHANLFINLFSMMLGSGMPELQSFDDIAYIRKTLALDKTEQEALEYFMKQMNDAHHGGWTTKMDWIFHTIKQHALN
Sequence of PIK3CB (Human) (P42338 whole entry, looked up): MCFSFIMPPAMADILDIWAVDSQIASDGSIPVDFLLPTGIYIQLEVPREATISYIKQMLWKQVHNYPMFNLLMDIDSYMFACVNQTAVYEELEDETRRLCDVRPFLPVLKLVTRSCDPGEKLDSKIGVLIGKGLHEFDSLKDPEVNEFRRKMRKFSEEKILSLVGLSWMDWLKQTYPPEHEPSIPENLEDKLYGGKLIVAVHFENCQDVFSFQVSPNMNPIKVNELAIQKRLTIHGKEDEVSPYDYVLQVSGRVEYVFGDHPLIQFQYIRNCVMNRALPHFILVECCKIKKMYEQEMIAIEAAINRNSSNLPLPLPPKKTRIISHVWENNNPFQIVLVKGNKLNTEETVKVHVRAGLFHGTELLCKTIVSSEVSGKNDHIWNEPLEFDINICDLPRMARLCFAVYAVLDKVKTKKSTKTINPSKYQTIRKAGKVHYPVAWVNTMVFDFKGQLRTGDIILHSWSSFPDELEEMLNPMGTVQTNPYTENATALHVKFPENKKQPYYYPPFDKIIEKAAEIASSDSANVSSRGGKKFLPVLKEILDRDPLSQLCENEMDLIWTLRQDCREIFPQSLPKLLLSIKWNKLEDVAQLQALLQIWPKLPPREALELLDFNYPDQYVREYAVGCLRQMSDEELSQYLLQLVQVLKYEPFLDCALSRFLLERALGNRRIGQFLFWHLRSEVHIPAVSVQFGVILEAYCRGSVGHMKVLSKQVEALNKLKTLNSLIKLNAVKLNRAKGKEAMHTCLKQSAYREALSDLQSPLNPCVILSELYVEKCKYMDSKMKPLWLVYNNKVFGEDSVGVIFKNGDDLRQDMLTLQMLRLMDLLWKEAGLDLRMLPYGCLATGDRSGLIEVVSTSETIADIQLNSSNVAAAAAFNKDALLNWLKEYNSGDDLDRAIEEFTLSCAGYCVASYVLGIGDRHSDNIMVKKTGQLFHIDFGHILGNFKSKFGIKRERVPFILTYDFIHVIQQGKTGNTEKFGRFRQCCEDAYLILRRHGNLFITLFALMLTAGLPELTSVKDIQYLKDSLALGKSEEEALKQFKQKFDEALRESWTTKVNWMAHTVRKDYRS

C[C@H](NCc1cnc2cccnn12)c1cc2cccc(Cl)c2c(=O)n1-c1ccccc1
IC50 [1]: > 10 µM | IC50 [2]: > 10 µM | IC50 [3]: > 10 µM

C[C@H](NCc1cccnc1N)c1cc2cccc(Cl)c2c(=O)n1-c1ccccc1
IC50 [1]: > 10 µM | IC50 [2]: > 10 µM | IC50 [4]: > 10 µM | IC50 [3]: > 10 µM

C[C@H](Nc1ncnn2cncc12)c1cc2cccc(C(F)(F)F)c2c(=O)n1-c1ccccc1
IC50 [1]: > 10 µM | IC50 [2]: > 10 µM | IC50 [3]: > 10 µM

C[C@H](Nc1nc(N)nc2cccnc12)c1nc2cccc(Cl)c2c(=O)n1-c1ccccc1
IC50 [1]: < 0.1 µM | IC50 [2]: 0.1 to 1 µM | IC50 [4]: < 0.1 µM | IC50 [3]: 0.1 to 1 µM

C[C@H](Nc1ncnc2cnccc12)c1cc2cccc(Cl)c2c(=O)n1-c1ccccc1
IC50 [1]: > 10 µM | IC50 [2]: > 10 µM | IC50 [4]: > 10 µM | IC50 [3]: > 10 µM

CNc1cccc2cc([C@H](C)Nc3nc(N)nc4cccnc34)n(-c3ccccc3)c(=O)c12
IC50 [1]: < 0.1 µM | IC50 [2]: > 10 µM | IC50 [4]: 0.1 to 1 µM | IC50 [3]: > 10 µM

C[C@H](Nc1ccnn2ccnc12)c1cc2cccc(Cl)c2c(=O)n1-c1ccccc1
IC50 [1]: < 0.1 µM | IC50 [2]: 0.1 to 1 µM | IC50 [4]: < 0.1 µM | IC50 [3]: < 0.1 µM

C[C@H](Nc1nc(Cl)nc2cccnc12)c1cc2cccc(Cl)c2c(=O)n1-c1ccccc1
IC50 [1]: < 0.1 µM | IC50 [2]: > 10 µM | IC50 [3]: > 10 µM

C[C@H](Nc1nc(N)nc2cccnc12)c1cc2cccc(N(C)C)c2c(=O)n1-c1ccccc1
IC50 [1]: 0.1 to 1 µM | IC50 [2]: > 10 µM | IC50 [3]: > 10 µM

C[C@H](Nc1ncnc2cccnc12)c1cc2ccc(F)c(Cl)c2c(=O)n1-c1ccccc1
IC50 [1]: < 0.1 µM | IC50 [2]: 0.1 to 1 µM | IC50 [4]: < 0.1 µM | IC50 [3]: 0.1 to 1 µM

C[C@H](Nc1ccn2nccc2n1)c1cc2cccc(Cl)c2c(=O)n1-c1ccccc1
IC50 [1]: > 10 µM | IC50 [2]: > 10 µM | IC50 [4]: > 10 µM | IC50 [3]: > 10 µM

C[C@H](Nc1ccnn2ccnc12)c1cc2scc(-c3cnn(C)c3)c2c(=O)n1-c1ccccc1
IC50 [1]: 0.1 to 1 µM | IC50 [2]: > 10 µM | IC50 [4]: 0.1 to 1 µM | IC50 [3]: > 10 µM

C[C@H](Nc1ncnn2cncc12)c1cc2cccc(Cl)c2c(=O)n1-c1cccc(F)c1
IC50 [1]: > 10 µM | IC50 [2]: > 10 µM | IC50 [3]: > 10 µM

C[C@H](Nc1cc(Cl)ncc1C#N)c1cc2cccc(Cl)c2c(=O)n1-c1ccccc1
IC50 [1]: > 10 µM | IC50 [2]: > 10 µM | IC50 [3]: > 10 µM

C[C@H](Nc1ncnc(N)c1C#N)c1cc2cccc(C(F)(F)F)c2c(=O)n1-c1ccccc1
IC50 [1]: < 0.1 µM | IC50 [2]: > 10 µM | IC50 [4]: < 0.1 µM | IC50 [3]: > 10 µM

C[C@H](Nc1nc(Cl)nc2cccnc12)c1cc2cccc(-c3cnn(C)c3)c2c(=O)n1-c1ccccc1
IC50 [1]: < 0.1 µM | IC50 [2]: > 10 µM | IC50 [4]: 0.1 to 1 µM | IC50 [3]: > 10 µM

C[C@H](Nc1nc(N)nc2cccnc12)c1cc2cccc(Cl)c2c(=O)n1-c1ccc(F)cc1
IC50 [1]: < 0.1 µM | IC50 [2]: 0.1 to 1 µM | IC50 [4]: < 0.1 µM | IC50 [3]: < 0.1 µM

C[C@H](Nc1ncnc2scnc12)c1cc2cccc(C(F)(F)F)c2c(=O)n1-c1ccccc1
IC50 [1]: < 0.1 µM | IC50 [2]: 0.1 to 1 µM | IC50 [4]: < 0.1 µM | IC50 [3]: < 0.1 µM

C[C@H](Nc1nc(Cl)nc2cccnc12)c1cc2cccc(-c3cnn(C)c3)c2c(=O)n1C1CC1
IC50 [1]: 0.1 to 1 µM | IC50 [2]: > 10 µM | IC50 [4]: 0.1 to 1 µM | IC50 [3]: > 10 µM

C[C@H](Nc1ncc(C(F)(F)F)c(N)n1)c1cc2cccc(Cl)c2c(CCN2CCOCC2)n1
IC50 [1]: > 10 µM | IC50 [2]: > 10 µM | IC50 [4]: > 10 µM | IC50 [3]: > 10 µM

C[C@H](Nc1ncnc2cccnc12)c1cc2c(F)ccc(Cl)c2c(=O)n1-c1ccccc1
IC50 [1]: < 0.1 µM | IC50 [2]: 0.1 to 1 µM | IC50 [3]: 0.1 to 1 µM

COc1cncc(-c2cccc3cc([C@H](C)Nc4ncnc5cccnc45)n(-c4ccccc4)c(=O)c23)c1
IC50 [1]: < 0.1 µM | IC50 [2]: 0.1 to 1 µM | IC50 [4]: < 0.1 µM | IC50 [3]: > 10 µM

C[C@H](Nc1nc(N)nc2cccnc12)c1cc2cccc(Cl)c2c(=O)n1-c1ccccc1
IC50 [1]: < 0.1 µM | IC50 [2]: 0.1 to 1 µM | IC50 [4]: < 0.1 µM | IC50 [3]: < 0.1 µM

COc1nc(N[C@@H](C)c2cc3cccc(Cl)c3c(=O)n2-c2ccccc2)c2ncccc2n1
IC50 [1]: > 10 µM | IC50 [2]: > 10 µM | IC50 [4]: > 10 µM | IC50 [3]: > 10 µM

COc1ncc(-c2cccc3cc([C@H](C)Nc4nc(N)nc5cccnc45)n(-c4cccc(F)c4)c(=O)c23)cn1
IC50 [1]: < 0.1 µM | IC50 [2]: > 10 µM | IC50 [4]: < 0.1 µM | IC50 [3]: > 10 µM

C[C@H](Nc1ncnc2[nH]cc(C#N)c12)c1cc2cccc(C(F)(F)F)c2c(=O)n1-c1ccccc1
IC50 [1]: < 0.1 µM | IC50 [2]: > 10 µM | IC50 [4]: < 0.1 µM | IC50 [3]: 0.1 to 1 µM

Cc1ncc(-c2cccc3cc([C@H](C)Nc4nc(N)nc5cccnc45)n(-c4ccccc4)c(=O)c23)cn1
IC50 [1]: < 0.1 µM | IC50 [2]: > 10 µM | IC50 [4]: < 0.1 µM | IC50 [3]: > 10 µM

C[C@H](Nc1ncnc2cc(F)c(F)cc12)c1cc2cccc(Cl)c2c(=O)n1-c1ccccc1
IC50 [1]: > 10 µM | IC50 [2]: > 10 µM | IC50 [4]: > 10 µM | IC50 [3]: > 10 µM

C[C@H](Nc1nc(Cl)ns1)c1cc2cccc(Cl)c2c(=O)n1-c1ccccc1
IC50 [1]: > 10 µM | IC50 [2]: > 10 µM | IC50 [4]: > 10 µM | IC50 [3]: > 10 µM

COc1ncc(-c2cccc3cc([C@H](C)Nc4ncnc5cccnc45)n(-c4ccccc4)c(=O)c23)cn1
IC50 [1]: < 0.1 µM | IC50 [2]: > 10 µM | IC50 [4]: < 0.1 µM | IC50 [3]: > 10 µM

C[C@H](Nc1nccc2nccn12)c1cc2cccc(Cl)c2c(=O)n1-c1ccccc1
IC50 [1]: > 10 µM | IC50 [2]: > 10 µM | IC50 [4]: > 10 µM | IC50 [3]: > 10 µM

C[C@H](Nc1nc(O)nc2cccnc12)c1cc2cccc(C(F)(F)F)c2c(=O)n1-c1cccc(F)c1
IC50 [1]: > 10 µM | IC50 [2]: > 10 µM | IC50 [4]: > 10 µM | IC50 [3]: > 10 µM

C[C@H](Nc1cc(Cl)nn2ccnc12)c1cc2cccc(-c3cnn(C)c3)c2c(=O)n1-c1cccc(F)c1
IC50 [1]: 0.1 to 1 µM | IC50 [2]: > 10 µM | IC50 [4]: 0.1 to 1 µM | IC50 [3]: > 10 µM

COc1ncc(-c2cccc3cc([C@H](C)Nc4nc(O)nc5cccnc45)n(-c4ccccc4)c(=O)c23)cn1
IC50 [1]: > 10 µM | IC50 [2]: > 10 µM | IC50 [4]: > 10 µM | IC50 [3]: > 10 µM

COc1ncc(-c2cccc3cc([C@H](C)Nc4nc(N)nc5cccnc45)n(-c4ccccc4)c(=O)c23)cn1
IC50 [1]: < 0.1 µM | IC50 [2]: > 10 µM | IC50 [4]: < 0.1 µM | IC50 [3]: > 10 µM

Cc1ncc(-c2cccc3cc([C@H](C)Nc4ncnc5cccnc45)n(-c4ccccc4)c(=O)c23)cn1
IC50 [1]: < 0.1 µM | IC50 [2]: > 10 µM | IC50 [4]: < 0.1 µM | IC50 [3]: > 10 µM

C[C@H](Nc1ncnc2cccnc12)c1cc2cccc(Cl)c2c(=O)n1CCN1CCCC1
IC50 [1]: 0.1 to 1 µM | IC50 [2]: > 10 µM | IC50 [4]: < 0.1 µM | IC50 [3]: 0.1 to 1 µM

C[C@H](Nc1ncc2[nH]cnc2n1)c1cc2cccc(Cl)c2c(=O)n1-c1ccccc1
IC50 [1]: > 10 µM | IC50 [2]: > 10 µM | IC50 [3]: > 10 µM

C[C@H](Nc1ncnc2cccnc12)c1cc2scc(-c3cnn(C)c3)c2c(=O)n1-c1ccccc1
IC50 [1]: < 0.1 µM | IC50 [2]: > 10 µM | IC50 [3]: > 10 µM

C[C@H](Nc1nc(Cl)nc2nc(Cl)cnc12)c1cc2cccc(Cl)c2c(=O)n1-c1ccccc1
IC50 [1]: > 10 µM | IC50 [2]: > 10 µM | IC50 [3]: > 10 µM

C[C@H](Nc1nc(Cl)nc2cccnc12)c1cc2cccc(C(F)(F)F)c2c(=O)n1-c1ccccc1
IC50 [1]: 0.1 to 1 µM | IC50 [2]: > 10 µM | IC50 [3]: > 10 µM

Cc1ccnc2cc(C(C)Nc3ncnc4cccnc34)[nH]c(=O)c12 (centres undefined)
IC50 [1]: > 10 µM | IC50 [2]: > 10 µM | IC50 [3]: > 10 µM

COc1ncc(-c2cccc3cc([C@H](C)Nc4cc(O)nc5cccnc45)n(-c4ccccc4)c(=O)c23)cn1
IC50 [1]: > 10 µM | IC50 [2]: > 10 µM | IC50 [3]: > 10 µM
